Laboratory results from patent publication US20240025856A1, “1,2,3,4-TETRAHYDROQUINOLINE DERIVATIVES AS INHIBITORS OF THE YAP/TAZ-TEAD ACTIVATION FOR TREATING CANCER” (KATHOLIEKE UNIVERSITEIT LEUVEN, priority 2020, published 2024).

Legend:
Type in all cases: cell-based
[1] = system: YAP/TAZ-TEAD transcription; assay: Reporter gene assay for measuring the inhibition of YAP/TAZ-TEAD transcription (TEAD-responsive element luciferase reporter in Hek293T cells); conditions: Homo sapiens, HEK-293T, 24 h, Hek293T cells transiently transfected with TEAD-responsive element luciferase reporter; 24 hours incubation
Method in brief: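 Hek293T cells transiently transfected with a TEAD-responsive element luciferase reporter, plated onto pre-diluted compounds and incubated 24 h at 37 °C/5% CO2. Luminescence read after SteadyLite addition; % inhibition from RLU relative to vehicle (0%) and a positive control inhibitor (100%), giving IC50.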

NCI-1H2052 = assay: Mesothelioma cell line proliferation assay, H2052 (ATPlite); conditions: Homo sapiens, NCI-H2052, 144 h, 6 days with compound, read-out: H2025 (EC50)
Procedure: Mesothelioma cell lines, NCI-1H226 and NCI-1H2052 (all sourced from the ATCC cell culture collection) are plated in 96-well plates (Corning® 96 Well White Polystyrene Microplate clear flat bottom, white polystyrene (TC-Treated)), at 1500 cells/well in full medium (RPMI 1640 ATCC modification with L-glutamine, HEPES, Phenol Red, Sodium Pyruvate, High glucose, Low sodium bicarbonate and 10% fetal bovine serum). Cells are incubated overnight at 37° C. in an incubator with 5% C02. Then compounds, dissolved in DMSO, are added in dose-response. Cells are incubated with compound dilutions for another 6 days at 37° C. in an incubator with 5% C02. Cell viability is quantitated using the ATPlite kit (Perkin-Elmer) and the luminescence is read-out using an Envision instrument (Perkin-Elmer). The amount of relative light units produced using the ATPlite kit is used to calculated percent of inhibition.
The activities of some example compounds are depicted in the table below. The activity ranges A, B and C refer to EC50 values in the mesothelioma cell line proliferation assay as described as follows: “A”: EC50<1 μM; “B”: 1 μM s EC50≤10 μM and “C”: EC50≥10 μM; NT: not tested.

KMRC3 = assay: Cancer cell line proliferation assay (CellTiter-Glo), KMRC3; conditions: 144 h, Kidney, LATS1 HOM DEL, 6 days
Procedure: (§1) All the cell lines are cultured in the media supplemented with 10-20% fetal bovine serum, in the temperature of 37° C., 5% CO2 and 95% humidity. The indicated cell lines (all sourced from the ATCC cell culture collection) are plated in 96-Well Flat Clear Bottom Black Polystyrene TC-Treated Microplates with the final cell density of 4×10^3 cells/well. Cells are incubated overnight and then compounds, dissolved in DMSO, are added in dose-response. Cells are incubated with compound dilutions for another 6 days. Cell viability is quantitated using CellTiter-Glo reagent (Perkin Elmer) and measured using an EnVision Multi Label Reader.

NCI-H226 = assay: Cancer cell line proliferation assay (CellTiter-Glo), NCI-H226; conditions: Homo sapiens, 144 h, Lung (mesothelioma), NF2 HOM DEL/LATS1 HOM DEL, 6 days
Procedure: as §1

Caov-3 = assay: Cancer cell line proliferation assay (CellTiter-Glo), Caov-3; conditions: Homo sapiens, 144 h, Ovary, LATS2 HOM DEL, 6 days
Procedure: as §1

[2] = system: selected tumor cell lines; assay: Cancer cell line proliferation assays, whole panel of selected tumor cell lines; conditions: cancer cell lines of Table 5
Procedure: as §1

IC50 [1]: < 1000 nM
GI50 (KMRC3): 20 nM
GI50 (NCI-H226): 40 nM
GI50 (Caov-3): 110 nM
Compound: C=CC(=O)NC1Cc2ccccc2N(c2ccc(C(F)(F)F)cc2)C1 (stereo not drawn) [compound 001, N-(1-(4-(trifluoromethyl)phenyl)-1,2,3,4-tetrahydroquinolin-3-yl)acrylamide]
EC50 (NCI-1H2052): < 1000 nM
inhibitory activity on the cell proliferation of the selected tumor cell lines [2]: strong inhibitory activity
